Assay results taken from patent US7485640B2, “Imidazopyrazinones as GABA-A receptor anxiolytics” (Merck Sharp & Dohme Limited, priority 2002, dated 2009).

For `CN1CCn2c(-c3ccc(F)c(-c4ccc(F)cc4C#N)c3)cnc2C1=O` [Example 22, 4,2′-Difluoro-5′-(7-methyl-8-oxo-5,6,7,8-tetrahydroimidazo[1,2-a]pyrazin-3-yl)biphenyl-2-carbonitrile], the melting point was 224 °C.
